The conditions of data set [1]: cited from earlier work.
Data set [2] can be described thus: Oral absorption / bioavailability. It is filed as in vivo. As to conditions: with taurocholic acid or salt in solution dosage composition. An excerpt: Taurocholic acid, a bile acid, may enhance in the intestinal absorption of the drug in certain patients. […] It is believed that this is due to the formation of a micellar solution of CPT on dilution thereof with the gastric contents.
Analogous to that of etoposide, it is believed that ingestion of the present dosage form of CPT and resulting dilution thereof by the stomach contents, results in the formation of a micellar solution of CPT in the stomach which is readily absorbed by the gastrointestinal tract.

The nature of data set [3]: Predicted outcome of administering lactone stable CPT to patients. Type of data set: in vivo, human. An excerpt: The novel features of the present invention include the following: (1) pharmaceutically acceptable formulations which allow the direct parenteral administration of lactone stable CPT to human subjects with cancer, (2) pharmaceutically acceptable formulations which allow the direct oral administration of lactone stable CPT to human subjects with cancer, and (3) dosages and schedules for the administration of lactone stable CPT to patients with cancer by parenteral and oral routes of administration. […] The inventors predict that by administering the carboxylate species of CPT a higher incidence of renal toxicity is observed than would be observed if the lactone species of CPT were administered.
Inventors claim that reason previous use of sodium CPT caused hemorrhagic cystitis relates to the enhanced renal excretion of the carboxylate form of CPT which when exposed to the lower pH (~pH 5) of the distal convoluted tubule in the kidney, the carboxylate form of CPT is converted to the lactone form of CPT. […] Elimination of CPT by the renal route is enhanced by administration of the carboxylate form and is reduced by administration of the lactone form.

A further data set has as its system LD1210 leukemia. As to conditions: 10-100 mg/kg intraperitoneally; cited from earlier work.
Data set [4] relates to Topoisomerase I purified from human colon carcinoma cells or calf thymus. Particulars: cited from earlier work.
Another data set relates to DNA. Particulars: in vitro cells; cited from earlier work.
Another data set has as its system L1210 cells. As to conditions: cited from earlier work.
Data set [5] relates to topoisomerase I-cleaved DNA complex. Particulars: cited from earlier work.
The conditions of data set [6]: pH below 7.0; cited from earlier work.
For data set [7] the following is noted: cited from earlier work. The source holds these as a separate data set.
For data set [8] the following is noted: cited from earlier work. The source holds these as a separate data set.
The conditions of data set [9]: human, in vivo; cited from earlier work.
For data set [10] the following is noted: carboxylate form; cited from earlier work.
For data set [11] the following is noted: cited from earlier work. This is another data set of the same source.
The test system of the next data set is malignant melanoma. As to conditions: cited from earlier work.
The conditions of data set [12]: 24 hours after, once daily ×5, 6.5-20 mg/m^2 /day; cited from earlier work.
Where [13] appears, read: 5-day course (27 patients), 4 wks.
[14] abbreviates: 5-day course (27 patients), 8 wks.
Setting [15] is: 5-day course (27 patients), 12 wks.
Where [16] appears, read: 5-day course, 15 mg/m^2 × 5, 9 treated.
Where [17] appears, read: 5-day course, 17 mg/m^2 × 5, 5 treated.
[18] abbreviates: 5-day course, 20 mg/m^2 × 5, 10 treated.
Where [19] appears, read: single-dose (34 patients), 3 wks.
Setting [20] is: single-dose (34 patients), 6 wks.
[21] abbreviates: single-dose (34 patients), 9 wks.
The mark [22] stands for this setting: single-dose (34 patients), 12 wks.
The mark [23] stands for this setting: single-dose, 110 mg/m^2, 2 treated.
Setting [24] is: single-dose, 120 mg/m^2, 7 treated.
[25] abbreviates: single-dose, 180 mg/m^2, 9 treated.

Entries after “also recorded” stand apart in the source; their conditions may differ. Where two headings read alike, the source gives them in different places.

For `CC[C@@]1(O)C(=O)OCc2c1cc1n(c2=O)Cc2cc3cc4c(cc3nc2-1)OCO4` [10,11 methylene dioxycamptothecin], the solubility in water entry in data set [1] is given as “relatively insoluble in water”.
For `CC[C@@]1(O)C(=O)OCc2c1cc1n(c2=O)Cc2cc3ccccc3nc2-1` [CPT, camptothecin], the absorption following ingestion entry in [2] was “improved absorption of the drug following ingestion”. The “renal elimination of CPT” value in data set [3] (oral or parenteral, lactone form, expected) is “minimal”. Besides, the “frequency of hemorrhagic cystitis relative to sodium CPT” value in [3] (predicted) was “significantly reduced”. Besides, the “T/C (treated/control) ratios” value in the data set on LD1210 leukemia was “superior T/C (treated/control) ratios relative to mice treated in the same manner with 7-ethyl camptothecin (ECPT) and 10-hydroxy 7-ethyl camptothecin (HECPT); also recorded: inferior to that of CPT-11 administration under the same conditions”. Besides, the “inhibition of topoisomerase I” value in [4] was “inhibited”. Besides, in the data set on DNA, the “nature of DNA strand breaks” value is given as “Virtually all of the DNA strand breaks observed in vitro cells treated with CPT are protein linked”. Besides, the unexplained protein-free breaks result in the data set with L1210 cells is reported as “an increase in unexplained protein-free breaks can be detected”. For the same compound, the “stabilization of the cleavable complex” value in data set [5] is given as “only the closed lactone form of the drug helps stabilize the cleavable complex”. Besides, the form predominating entry in [6] was “closed form of CPT predominates”. Further, in [7] (human, in vivo), the “cystitis as nonhematologic toxic effect” value was “Cystitis was another toxic effect occurring frequently” and the excretion entry is recorded as “excreted unchanged by the kidneys”. The “investigators' conclusion on toxicity and clinical value” in data set [8] (gastrointestinal cancer) was “a drug of protean and unpredictable toxicity that has no clinical value”. In data set [9], the “toxicity in clinical trials” value is “unpredictable myelosuppression and hemorrhagic cystitis”.
With `CC[C@@](O)(C(=O)O)c1cc2n(c(=O)c1CO)Cc1cc3ccccc3nc1-2` [carboxylate form of CPT], the “reduction of antitumor activity” value in data set [10] is recorded as “at least 10 fold”.
For the compound “sodium salt of camptothecin [CPT sodium]”, the “mean urine recovery of CPT” value in data set [11] (first 48 hours, iv) is 17.4%. In data set [11] (first 48 hours, iv), the “urine recovery of CPT, range” value is on record as 3.6-38.9%. The “mean urine recovery of CPT excluding the 5 patients with impaired excretion” value in data set [11] (iv, 2880 min) was 22.8%. The sterile hemorrhagic cystitis in data set [11] (moderately dehydrated patients) is given as 3 patients. Also, the “Bladder toxicity, dose limiting” value in data set [7] (doses of 20 to 30 mg/m^2) is “three”. In addition, in data set [7] (doses of 44 and 30 mg/m^2), the “Bladder toxicity, additional patients” value is on record as “two”. Also, the clinical benefit entry in data set [7] (eight patients with measurable disease, 5-day courses) is reported as “No clinical benefit was observed”. Besides, in [7] (human, in vivo), the “cystitis as nonhematologic toxic effect” value is recorded as “Cystitis was the most prominent nonhematologic toxic effect”. In addition, the “major dose-limiting toxic effect” value in [7] (human, in vivo) is recorded as “Reversible leukopenia”. Besides, the “prolonged leukopenia after daily treatment” value in data set [7] (total dose of 100 mg/m^2) was “four”. Also, in data set [7] (weekly courses), the clinical responses result was “two”. In addition, the Cystitis in data set [8] (5-Day Course, P < 0.05) was 48 % of 27 Patients; in data set [8] (Single Dose) it was 24 % of 34 Patients. In addition, the “Objective results: Improved” value in [8] (setting [13]) is reported as 1 patients; in [8] (setting [19]) it was 4 patients; in [8] (setting [20]), 2 patients; in data set [8] (setting [21]) it was 2 patients. Also, the “Objective results: Stable” value in [8] (setting [13]) is on record as 12 patients; in data set [8] (setting [14]) it was 7 patients; in data set [8] (setting [15]), 6 patients; in data set [8] (setting [19]), 17 patients; in [8] (setting [20]) it was 11 patients; in data set [8] (setting [21]), 8 patients. For the same compound, the “Objective results: Stable” value in data set [8] (setting [22]) is 6 patients. Further, the “Objective results: Worse” value in data set [8] (setting [13]) is reported as 14 patients; in data set [8] (setting [14]), 20 patients; in data set [8] (setting [15]), 21 patients; in data set [8] (setting [19]), 13 patients; in data set [8] (setting [20]) it was 21 patients; in data set [8] (setting [21]) it was 24 patients. For the same compound, the “Objective results: Worse” value in data set [8] (setting [22]) is 28 patients. Also, the “Cystitis, No. of Patients” value in [8] (5-day course, 11 mg/m^2 × 5, 2 treated) is 1 No. of Patients; in [8] (setting [16]), 4 No. of Patients; in data set [8] (setting [17]), 2 No. of Patients; in data set [8] (setting [18]) it was 6 No. of Patients; in [8] (single-dose, 100 mg/m^2, 6 treated), 2 No. of Patients; in data set [8] (setting [23]), 1 No. of Patients. Besides, the “Cystitis, No. of Patients” value is 2 No. of Patients in data set [8] (setting [24]) and 3 No. of Patients in data set [8] (setting [25]). Also, the “Diarrhea, No. of Patients” value was 1 No. of Patients in data set [8] (setting [16]); 4 No. of Patients in [8] (setting [17]); 4 No. of Patients in data set [8] (setting [18]); 1 No. of Patients in [8] (5-day course, 22 mg/m^2 × 5, 1 treated); 1 No. of Patients in data set [8] (setting [23]); 4 No. of Patients in data set [8] (setting [24]). Moreover, in data set [8] (setting [25]), the “Diarrhea, No. of Patients” value is recorded as 2 No. of Patients. In addition, in data set [8] (after 2 months (8 or 9 weeks), both large bowel cancer), the partial objective improvement result is given as “two”. Besides, in data set [8] (at 3 months, 61 patients), the improvement entry was “none showed improvement”. Also, in [8] (at 3 wks only), the 25%-50% response was 3 patients. Also, in data set [8] (higher doses), the “persistence of severe diarrhea” value is at most 4 weeks. In addition, the onset of cystitis in [8] (human, in vivo) is 7 to 10 days. Moreover, the “50% or greater decrease in tumor diameter” value with malignant melanoma (90-360 mg/m^2 every 2 weeks, fifteen patients) was “None”. Further, the myelosuppression with malignant melanoma (fifteen patients) was 11 patients. In addition, the toxic effects entry in the data set with malignant melanoma (human, in vivo) is “nausea and vomiting, alopecia, diarrhea, and hemorrhagic cystitis”. Besides, the “less pronounced transient tumor regression” value in the data set on malignant melanoma (no clinical benefit, fifteen patients) is recorded as “three”. Besides, the “relation of plasma CPT levels to dose” value in data set [12] was “little relation to the dose given”. Besides, the “toxicity in clinical trials” value in [9] is “unpredictable and severe myelosuppression, gastrointestinal toxicity, hemorrhagic cystitis, and alopecia”.

Source of the values: patent US5597829A, “Lactone stable formulation of camptothecin and methods for uses thereof” (priority 1994, dated 1997).
